In brackets after ≈: the same amount, converted by molar mass.
Legend:
[1] = system: Hep3B human hepatocellular carcinoma cells; experiment: MTS tetrazolium cell proliferation assay, 72-h exposure; assay type: cell-based; conditions: normoxic (21% O2), read-out: IC50 Normoxic (N)
Description: Anti-proliferative assay. The human hepatocellular carcinoma cell line Hep3B was purchased from American Type culture Collection (ATCC, Manassas, Va.). Dulbecco's Modified Eagle Medium (DMEM) and penicillin/streptomycin (P/S) were obtained from GIBCO Invitrogen. Fetal Bovine serum (FBS) was obtained from Thermo Scientific Hyclone. Dimethyl sulfoxide (DMSO-Hybri-Max) was purchased from Sigma-Aldrich Co. and the CellTiter 96 AQueous One Solution Cell Proliferation Assay (MTS) was acquired from Promega Corp. Hep3B cells were maintained in DMEM supplemented with 10% FBS and 1× P/S solution. Cultures were incubated at 37° C. in a 5% CO2 atmosphere with 99% humidity. Stock solutions of test compounds were prepared in DMSO for use in the cell culture viability assays.
MTS tetrazolium cell proliferation assay. The viability of Hep3B cells exposed to the synthesized compounds was determined by the MTS assay. Briefly, Hep3B cells were plated in 96-well plates at a density of 3.0×10^3 cells/well and incubated for 24-h before treatment. At the initiation of treatment, the growth media was replaced with 200 μL of media containing increasing concentrations of the test compounds in triplicate wells. The final DMSO concentration in the media was 1.0% including the media added to the control wells minus the test compound. After a 72-hour incubation, 40 μL of MTS solution was added to each well and the plates were incubated for an additional 3.0 hours. The plates were then read at 490 nm on a Biotek Instruments PowerWave 200 microplate reader. For each experiment the percent growth inhibition relative to the control (no drug addition) was calculated and a dose inhibition curve was generated. The concentration of drug required to inhibit cell growth by 50% (IC50) compared to the control cells was then determined by non-linear regression using PSI-Plot software (Poly Software International).
Antiproliferative activity. The anti-cancer activities of the parent compounds 3 and 8 and the conjugated compounds 7a-d and 10a-d were tested against Hep3B human hepatocellular carcinoma cells in culture.

[2] = system: 786-0 human renal adenocarcinoma cells; experiment: MTT cell viability assay, 3 days; assay type: cell-based; conditions: Homo sapiens, 786-0, 72 h, normoxic conditions, 1% DMSO
Procedure: (§1) Additional cell culture, drug treatment and cell viability assays. HT29 human colorectal carcinoma cells, 786-0 human renal adenocarcinoma cells and Hep3B human hepatocellular carcinoma cells were obtained from ATCC and maintained in culture according to their recommendations. […] After the treatment period viability of the cells was determined with the MTT cell viability assay and dose response curves were generated using the calculated values of the percentage viable cells relative to the vehicle control.

[3] = system: HT29 human colorectal carcinoma cells; experiment: MTT cell viability assay, 3 days; assay type: cell-based; conditions: Homo sapiens, HT-29, 72 h, normoxic conditions, 1% DMSO
Procedure: as §1

[4] = system: Hep3B human hepatocellular carcinoma cells; experiment: MTT cell viability assay, 3 days; assay type: cell-based; conditions: Homo sapiens, Hep3B, 72 h, normoxic conditions, 1% DMSO
Procedure: as §1

[5] = system: HT29 human colorectal carcinoma cells; experiment: Cell viability by plating efficiency (colony formation after replating); assay type: cell-based; conditions: 40 μM, 48 h, diluted 10,000 fold and replated, colonies stained eight days later
Procedure: FIG. 6 depicts the plating efficiency of HT29 human colorectal carcinoma cells after treatment with DMSO, 40μ M3n and 40μ M3N-PEG-2NI. HT29 cells were treated for 48 h with 40 μM M3N, 40 μM M3N-PEG-2NI or the DMSO vehicle. At the end of the treatment period, the cells were diluted 10,000 fold and replated. Eight days later colonies were stained with methylene blue.
For the further assessment of cell viability by plating efficiency, cells (2×10^6 cells/100 mm dish) from the human colorectal carcinoma cell line HT29 were treated for 48 hours with 40 μM M3N, 40 μM M3N-PEG-2NI or the DMSO vehicle. At the end of the treatment period, the cells from each dish were released by trypsinization, diluted 10,000 fold and replated into new 100 mm dishes. Eight days later colonies were stained with 0.25% methylene blue in 50% ethanol

[6] = Determination of water solubility by UV absorbance of a saturated solution; assay type: physicochemical; conditions: thermodynamic from solid; water, saturated solution, sonicated at 25° C., stirred at room temperature 1.0 h, filtered
Procedure: The aqueous solubility of all eight compounds was assessed by using a technique involving measurement of their UV absorbance^29.
Determination of Water Solubility of Compounds 7a-d and 10a-d. A saturated solution was prepared by addition of a test compound (7a-d and 10a-d; ca. 1.00 mg) to water (1.00 mL), which was sonicated at 25° C. for 5.0 min and stirring at room temperature for an additional 1.0 h. After filtration with Millipore filters (0.45-μm-pore-size polyvinylidene fluoride), the supernatant was analyzed by UV spectroscopy with concentration determined from absorbance, standardized against calibration data. Standard curves for each compound were obtained by plotting absorbance against concentration. The concentration range of the standard solutions was 1.0-10 μg/mL. For all standards, their curves were linear with γ>0.996.

COc1ccc(C[C@H](C)[C@H](C)Cc2ccc(OC)c(OCCOCCOCCOCCn3ccnc3[N+](=O)[O-])c2)cc1OC (racemic) [Compound 7d, (±)-(2R,3S)-4-(3,4-Dimethoxyphenyl)-1-[4-methoxy-3-[12-(2-nitro-1H-imidazol-1-yl)-1,4,7,10-tetraoxadodecanyl]phenyl]-2,3-dimethylbutane]
IC50 [1]: 12.6 ± 4.9 µM | IC50 [2]: 10 to 14 µM | IC50 [3]: 4 to 6 µM | IC50 [4]: 4 µM | Ability of HT29 cells to replicate after treatment (plating efficiency) [5]: unable to replicate | solubility at 1 h [6]: 0.0132 mg/mL (≈ 21.5 µM)

From patent US9084779B2, “Conjugates of nitroimidazoles and their use as chemotherapeutic agents” (The Johns Hopkins University, priority 2011, dated 2015)
